One test has as its target T1, Protein RecA (Mycobacterium tuberculosis, UniProt P9WHJ3).
T1 sequence (P9WHJ3 whole entry): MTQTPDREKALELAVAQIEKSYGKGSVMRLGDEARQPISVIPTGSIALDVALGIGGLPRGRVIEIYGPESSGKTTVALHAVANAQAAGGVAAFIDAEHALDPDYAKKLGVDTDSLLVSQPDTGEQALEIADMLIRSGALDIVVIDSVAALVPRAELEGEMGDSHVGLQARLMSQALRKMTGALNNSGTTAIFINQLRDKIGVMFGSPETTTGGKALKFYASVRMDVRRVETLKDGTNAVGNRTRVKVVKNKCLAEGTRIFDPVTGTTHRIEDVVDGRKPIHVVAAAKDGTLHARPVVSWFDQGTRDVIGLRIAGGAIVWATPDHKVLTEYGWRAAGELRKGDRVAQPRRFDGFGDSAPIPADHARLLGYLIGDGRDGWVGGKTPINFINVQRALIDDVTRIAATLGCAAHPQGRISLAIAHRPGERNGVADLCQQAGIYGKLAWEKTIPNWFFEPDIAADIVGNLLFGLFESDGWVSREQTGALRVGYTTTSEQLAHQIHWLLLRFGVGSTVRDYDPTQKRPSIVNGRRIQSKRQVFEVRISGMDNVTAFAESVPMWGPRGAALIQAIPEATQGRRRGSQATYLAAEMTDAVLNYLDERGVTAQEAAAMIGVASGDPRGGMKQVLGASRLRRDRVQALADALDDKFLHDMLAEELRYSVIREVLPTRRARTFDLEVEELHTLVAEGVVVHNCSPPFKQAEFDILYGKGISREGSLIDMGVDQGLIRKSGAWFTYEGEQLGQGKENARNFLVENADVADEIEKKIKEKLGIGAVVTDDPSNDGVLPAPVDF
The test is described as follows: Fluorescence Cell-Free Homogeneous Dose Retest to Identify Inhibitors of RecA-Intein Splicing Activity. [Related pubchem assays (depositor defined):AID2097, AID2223, AID489010, AID492950]. The format is functional.

A short description of test [1]: cytotoxicity in HEK-293T cells, dose response, cytotoxicity control for TCR NF-kB inhibitor project, luminescence, T-cell screen hits (AID 489026).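 Note: cells exposed to compound about 14 hours before the viability readout.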 The format is functional, cell-based.
The nature of test [2]: NIH-3T3 fibroblast cytotoxicity, dose response, cytotoxicity control, cell-based, fluorescence, Alamar Blue, secondary assay (AID 2327).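 Note: NIH-3T3 mouse fibroblasts cultured with fluconazole at 8 µg/mL.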 The format is functional. (Resazurin is reduced to fluorescent resorufin, in cell work by metabolically active cells.)
Test [3] in a line: control 3'UTR Renilla luciferase suppression, dose response, counter-screen for Shn3 inhibitor project, cell-based, Clone20-Shn3RL, cherry-picked (AID 624133). Format: functional.
Test [4] deals with Cyclin-dependent kinase 7 (Homo sapiens, UniProt P50613). Format: functional.
Test [5] concerns the target 5'-AMP-activated protein kinase catalytic subunit alpha-1 (Homo sapiens, UniProt Q13131). The format is functional.
The next test concerns the target Aurora kinase A (Homo sapiens, UniProt O14965). The format is functional.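 Note: value from the Navigating the Kinome kinase panel profiling, panel entry STK6.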
The target of test [6] is Insulin-like growth factor 1 receptor (Homo sapiens, UniProt P08069). The test is described as follows: Navigating the Kinome. Panel member name: IGF1R. The format is functional.
Test [7] has as its target Dual specificity mitogen-activated protein kinase kinase 1 (Homo sapiens, UniProt Q02750). The test is described as follows: Navigating the Kinome. Panel member name: MAP2K1. Format: functional.
For test [8], the target named is Protein kinase C theta type (Homo sapiens, UniProt Q04759). The test is described as follows: Navigating the Kinome. Panel member name: PRKCQ. Format: functional.
In test [9] the target is Mitogen-activated protein kinase 14 (Homo sapiens, UniProt Q16539). Format: functional.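 Note: part of a kinome-wide panel, MAPK14 entry.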
In test [10] the target is Mitogen-activated protein kinase 10 (Homo sapiens, UniProt P53779). The test can be described thus: Navigating the Kinome. Panel member name: MAPK10. Format: functional.
The target in test [11] is MAP/microtubule affinity-regulating kinase 3 (Homo sapiens, UniProt P27448). Format: functional.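 Note: MARK3 affinity measured as one member of a kinome panel.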
For test [12], the target named is ALK tyrosine kinase receptor (Homo sapiens, UniProt Q9UM73). Format: functional.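 Note: ALK tested as one member of a kinase panel screen.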

The source made the active and inactive calls.

Mitogen-activated protein kinase 10, sequence (P53779 whole entry): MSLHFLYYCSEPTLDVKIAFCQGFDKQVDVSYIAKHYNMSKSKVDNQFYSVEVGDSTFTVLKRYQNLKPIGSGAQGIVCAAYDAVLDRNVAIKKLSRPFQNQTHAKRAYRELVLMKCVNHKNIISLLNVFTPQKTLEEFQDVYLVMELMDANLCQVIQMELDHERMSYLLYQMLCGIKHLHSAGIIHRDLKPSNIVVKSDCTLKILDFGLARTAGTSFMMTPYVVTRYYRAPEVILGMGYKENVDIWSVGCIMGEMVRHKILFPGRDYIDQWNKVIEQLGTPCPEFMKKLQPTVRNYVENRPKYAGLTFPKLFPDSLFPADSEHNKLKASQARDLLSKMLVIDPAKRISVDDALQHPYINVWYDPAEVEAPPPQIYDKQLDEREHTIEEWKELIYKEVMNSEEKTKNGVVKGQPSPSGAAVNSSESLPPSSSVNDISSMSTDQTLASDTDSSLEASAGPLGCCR
Cyclin-dependent kinase 7, sequence (P50613 whole entry): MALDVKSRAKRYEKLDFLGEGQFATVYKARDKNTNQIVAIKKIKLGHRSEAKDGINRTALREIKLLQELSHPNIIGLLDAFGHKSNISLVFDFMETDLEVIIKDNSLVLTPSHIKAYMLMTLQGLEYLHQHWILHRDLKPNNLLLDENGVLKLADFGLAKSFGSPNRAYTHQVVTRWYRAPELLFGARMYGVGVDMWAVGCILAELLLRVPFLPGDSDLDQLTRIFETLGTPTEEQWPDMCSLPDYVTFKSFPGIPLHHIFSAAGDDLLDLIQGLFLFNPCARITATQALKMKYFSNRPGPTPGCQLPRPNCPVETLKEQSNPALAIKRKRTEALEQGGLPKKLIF
MAP/microtubule affinity-regulating kinase 3, sequence (P27448 whole entry): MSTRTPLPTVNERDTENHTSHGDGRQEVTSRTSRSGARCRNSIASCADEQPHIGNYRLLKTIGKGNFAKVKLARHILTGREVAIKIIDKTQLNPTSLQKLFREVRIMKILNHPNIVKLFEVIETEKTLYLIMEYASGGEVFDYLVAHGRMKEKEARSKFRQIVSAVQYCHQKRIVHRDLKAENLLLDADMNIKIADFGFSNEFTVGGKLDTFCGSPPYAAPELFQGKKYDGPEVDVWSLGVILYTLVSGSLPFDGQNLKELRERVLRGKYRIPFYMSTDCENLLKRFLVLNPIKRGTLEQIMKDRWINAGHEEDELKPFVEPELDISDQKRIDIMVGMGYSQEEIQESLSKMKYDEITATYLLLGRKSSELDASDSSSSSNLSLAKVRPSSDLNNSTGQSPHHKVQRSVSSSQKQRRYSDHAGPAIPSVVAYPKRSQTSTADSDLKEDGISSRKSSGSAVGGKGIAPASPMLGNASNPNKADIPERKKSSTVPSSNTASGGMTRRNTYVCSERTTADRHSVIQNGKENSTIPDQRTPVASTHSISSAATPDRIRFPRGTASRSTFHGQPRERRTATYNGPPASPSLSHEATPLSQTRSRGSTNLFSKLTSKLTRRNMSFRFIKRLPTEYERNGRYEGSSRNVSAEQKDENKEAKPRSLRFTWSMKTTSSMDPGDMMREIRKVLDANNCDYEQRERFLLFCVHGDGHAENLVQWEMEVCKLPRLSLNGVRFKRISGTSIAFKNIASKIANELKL
Dual specificity mitogen-activated protein kinase kinase 1, sequence (Q02750 whole entry): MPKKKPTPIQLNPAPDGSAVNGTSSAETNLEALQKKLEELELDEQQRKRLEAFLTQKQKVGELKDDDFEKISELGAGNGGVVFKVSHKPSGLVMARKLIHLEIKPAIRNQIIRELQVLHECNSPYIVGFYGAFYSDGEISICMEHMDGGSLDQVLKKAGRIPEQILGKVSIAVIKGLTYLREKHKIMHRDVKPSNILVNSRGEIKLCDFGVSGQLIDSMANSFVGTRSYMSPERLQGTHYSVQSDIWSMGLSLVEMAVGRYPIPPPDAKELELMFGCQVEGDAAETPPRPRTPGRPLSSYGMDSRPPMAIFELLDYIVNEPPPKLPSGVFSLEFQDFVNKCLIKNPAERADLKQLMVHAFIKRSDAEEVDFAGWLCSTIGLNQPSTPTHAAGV
Insulin-like growth factor 1 receptor, sequence (P08069 31-736 limits assumed): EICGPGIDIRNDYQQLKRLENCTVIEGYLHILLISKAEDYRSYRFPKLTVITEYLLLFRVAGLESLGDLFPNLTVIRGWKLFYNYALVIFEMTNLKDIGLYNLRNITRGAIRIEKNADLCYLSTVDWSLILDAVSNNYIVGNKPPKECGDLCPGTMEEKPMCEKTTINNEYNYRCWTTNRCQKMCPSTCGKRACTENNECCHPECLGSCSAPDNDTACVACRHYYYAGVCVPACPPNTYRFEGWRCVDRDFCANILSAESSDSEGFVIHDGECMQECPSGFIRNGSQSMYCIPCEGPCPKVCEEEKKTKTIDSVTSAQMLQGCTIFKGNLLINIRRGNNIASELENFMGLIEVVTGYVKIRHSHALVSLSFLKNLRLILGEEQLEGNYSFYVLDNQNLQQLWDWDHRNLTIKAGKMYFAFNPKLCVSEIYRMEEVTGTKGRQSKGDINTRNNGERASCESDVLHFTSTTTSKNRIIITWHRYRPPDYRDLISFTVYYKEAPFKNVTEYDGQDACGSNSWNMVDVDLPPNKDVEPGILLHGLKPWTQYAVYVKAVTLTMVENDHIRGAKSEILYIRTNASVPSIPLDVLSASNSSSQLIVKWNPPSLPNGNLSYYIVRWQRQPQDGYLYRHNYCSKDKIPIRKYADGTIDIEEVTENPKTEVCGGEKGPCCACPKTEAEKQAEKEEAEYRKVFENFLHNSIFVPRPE
Insulin-like growth factor 1 receptor, sequence (P08069 741-1367 limits assumed): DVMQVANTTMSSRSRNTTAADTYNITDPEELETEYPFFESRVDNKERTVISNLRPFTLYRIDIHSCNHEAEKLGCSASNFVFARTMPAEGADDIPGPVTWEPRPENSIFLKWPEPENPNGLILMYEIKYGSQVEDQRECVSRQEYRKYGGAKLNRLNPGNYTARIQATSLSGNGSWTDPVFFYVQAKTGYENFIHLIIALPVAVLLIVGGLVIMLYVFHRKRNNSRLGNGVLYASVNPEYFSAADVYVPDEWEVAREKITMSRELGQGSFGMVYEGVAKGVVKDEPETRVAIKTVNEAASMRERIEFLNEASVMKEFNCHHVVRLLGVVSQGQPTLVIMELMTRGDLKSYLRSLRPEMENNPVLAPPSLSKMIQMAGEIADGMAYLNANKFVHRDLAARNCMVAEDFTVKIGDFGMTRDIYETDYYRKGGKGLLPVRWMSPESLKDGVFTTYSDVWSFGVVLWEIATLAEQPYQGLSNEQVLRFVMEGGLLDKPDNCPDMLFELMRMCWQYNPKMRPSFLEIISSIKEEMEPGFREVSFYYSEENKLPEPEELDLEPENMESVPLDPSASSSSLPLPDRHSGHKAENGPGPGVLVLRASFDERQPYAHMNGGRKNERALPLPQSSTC
5'-AMP-activated protein kinase catalytic subunit alpha-1, sequence (Q13131 whole entry): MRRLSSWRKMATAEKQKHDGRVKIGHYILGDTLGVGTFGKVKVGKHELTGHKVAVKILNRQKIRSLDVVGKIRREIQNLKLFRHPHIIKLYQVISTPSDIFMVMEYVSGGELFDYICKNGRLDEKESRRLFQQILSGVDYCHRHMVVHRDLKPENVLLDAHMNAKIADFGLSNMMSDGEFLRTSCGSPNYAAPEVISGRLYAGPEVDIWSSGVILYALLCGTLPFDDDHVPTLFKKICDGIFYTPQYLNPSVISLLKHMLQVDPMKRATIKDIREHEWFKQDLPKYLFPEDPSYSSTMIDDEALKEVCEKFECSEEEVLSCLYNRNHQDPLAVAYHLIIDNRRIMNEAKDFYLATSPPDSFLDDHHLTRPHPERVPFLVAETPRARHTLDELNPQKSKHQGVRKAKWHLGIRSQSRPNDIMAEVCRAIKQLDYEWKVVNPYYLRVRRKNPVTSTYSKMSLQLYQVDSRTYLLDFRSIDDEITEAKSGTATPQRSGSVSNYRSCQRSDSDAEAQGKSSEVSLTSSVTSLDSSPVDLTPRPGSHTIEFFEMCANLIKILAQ
Protein kinase C theta type, sequence (Q04759 whole entry): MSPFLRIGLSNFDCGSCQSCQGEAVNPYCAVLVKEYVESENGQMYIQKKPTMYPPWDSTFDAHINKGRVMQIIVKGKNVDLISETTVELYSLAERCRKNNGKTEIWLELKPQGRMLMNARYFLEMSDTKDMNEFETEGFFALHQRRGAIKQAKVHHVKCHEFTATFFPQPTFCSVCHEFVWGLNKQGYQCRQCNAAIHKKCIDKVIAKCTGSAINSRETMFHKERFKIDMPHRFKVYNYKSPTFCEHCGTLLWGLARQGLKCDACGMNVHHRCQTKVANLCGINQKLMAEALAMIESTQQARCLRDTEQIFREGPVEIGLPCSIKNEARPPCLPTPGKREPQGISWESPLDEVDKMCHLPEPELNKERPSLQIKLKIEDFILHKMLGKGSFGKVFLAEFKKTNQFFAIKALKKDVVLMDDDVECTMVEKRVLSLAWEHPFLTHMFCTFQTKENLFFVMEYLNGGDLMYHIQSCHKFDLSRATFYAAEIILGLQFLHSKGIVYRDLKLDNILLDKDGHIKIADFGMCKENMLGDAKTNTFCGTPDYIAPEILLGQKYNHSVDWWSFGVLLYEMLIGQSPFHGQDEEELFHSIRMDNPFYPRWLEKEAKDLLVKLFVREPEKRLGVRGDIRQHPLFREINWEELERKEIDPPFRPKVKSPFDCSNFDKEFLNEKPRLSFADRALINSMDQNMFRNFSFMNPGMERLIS
Mitogen-activated protein kinase 14, sequence (Q16539 whole entry): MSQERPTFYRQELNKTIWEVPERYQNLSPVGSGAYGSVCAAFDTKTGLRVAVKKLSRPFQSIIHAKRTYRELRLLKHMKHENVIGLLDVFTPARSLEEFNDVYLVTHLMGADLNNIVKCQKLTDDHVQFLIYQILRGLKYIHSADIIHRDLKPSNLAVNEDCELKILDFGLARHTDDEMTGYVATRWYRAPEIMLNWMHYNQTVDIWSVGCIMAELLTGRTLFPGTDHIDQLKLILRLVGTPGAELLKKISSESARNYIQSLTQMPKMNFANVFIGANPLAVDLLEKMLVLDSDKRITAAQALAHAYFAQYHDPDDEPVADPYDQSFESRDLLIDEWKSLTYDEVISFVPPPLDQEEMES

In the case of `O=C(NC1=C(NC2CCS(=O)(=O)C2)C(=O)c2ccccc2C1=O)c1ccccc1` (centres undefined), at Protein RecA, the EC50 was 101 nM (active).

Turning to `CCCC(=O)NC(c1ccc(N(C)C)cc1)c1ccc2cccnc2c1O` (centres undefined), in test [1], the IC50 was > 80000 nM (inactive). For the same molecule, in test [2], the EC50 was 22900 nM (inconclusive). In addition, in test [3], the AC50 was 745 nM (active).

For the molecule `O=C1NC(=O)C(c2c[nH]c3ccccc23)=C1c1nc(N2CCNCC2)nc2ccccc12`, the Ki in test [4] was 1260 nM (active); in test [5], 200 nM (active); on Aurora kinase A it was > 1580 nM (inactive); in [6], > 2510 nM (inactive); in test [7], 794 nM (active); in [8], 0.316 nM (active). Also, the Ki in test [9] is > 3980 nM (inactive); in test [10], > 3160 nM (inactive); in [11], 398 nM (active); in [12] it was 3980 nM (active).

Usually EC50 stands for the midpoint of the concentration-response curve. The term IC50 denotes the point on the concentration scale where inhibition reaches its midpoint. The term AC50 denotes the midpoint of the concentration-response curve, whichever way the signal moves. For orientation: Ki means a measure of affinity in units of concentration, obtained from inhibition or displacement.

For the origin of these results see ChEMBL document CHEMBL1201862, “PubChem BioAssay data set” (2004).
